# Experimental data from the supplement of paper PMC10307832.
# Compound: CN1CCC(CC1)OC2=CC(=C(C=C2)NC3=NC=C4C(=N3)N(C(=O)N4C)C5CCCC5)OC [AZ3146] + CS(=O)(=O)CCNCc1ccc(-c2ccc3ncnc(Nc4ccc(OCc5cccc(F)c5)c(Cl)c4)c3c2)o1 [Lapatinib] (partner 2 µM)
# Test: relative viability (nuclei count vs DMSO), 5 days (fraction); higher = more cells survive
# Details: first compound 0.08 µM
# Procedure, shortened: (§1)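 Each reported value is a median over duplicate plates. It expresses relative viability: treated-well nuclei count divided by vehicle-well nuclei count. Lung cancer cell lines in 1536-well plates were dosed by pin tool a day after seeding, alone with one drug or with a fixed anchor-drug dose plus five library-drug doses (not always all listed) in √10 steps, and nuclei were counted after 5 days.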
row,Cell Line,relative viability
1,PC-14,0.285
2,NCI-H1666,0.681
3,EKVX,0.172
4,NCI-H1755,1.03
5,NCI-H2023,0.688
6,SK-LU-1,0.803
7,PC-3 [JPC-3],0.368
8,LOU-NH91,0.969
9,NCI-H647,1.05

# Same assay, conditions: first compound 0.253 µM
row,Cell Line,relative viability
1,PC-14,0.351
2,NCI-H1666,0.669
3,EKVX,0.222
4,NCI-H1755,1.05
5,NCI-H2023,0.922
6,HCC-78,0.488
7,SK-LU-1,0.972
8,PC-3 [JPC-3],0.459
9,LOU-NH91,0.739
10,NCI-H647,1.12

# Same assay, conditions: first compound 0.8 µM
row,Cell Line,relative viability
1,PC-14,0.279
2,NCI-H1666,0.694
3,EKVX,0.225
4,NCI-H1755,0.973
5,NCI-H2023,0.735
6,HCC-78,0.762
7,SK-LU-1,0.825
8,PC-3 [JPC-3],0.419
9,LOU-NH91,0.692
10,NCI-H647,1.12

# Same assay, conditions: first compound 2.53 µM
row,Cell Line,relative viability
1,PC-14,0.382
2,NCI-H1666,0.891
3,EKVX,0.24
4,NCI-H1755,1.05
5,NCI-H2023,0.941
6,HCC-78,0.864
7,SK-LU-1,1.13
8,PC-3 [JPC-3],0.47
9,LOU-NH91,0.768
10,NCI-H647,1.25

# Same assay, conditions: first compound 8 µM
row,Cell Line,relative viability
1,PC-14,0.315
2,NCI-H1666,0.536
3,EKVX,0.2
4,NCI-H1755,1.05
5,NCI-H2023,0.179
6,HCC-78,0.574
7,SK-LU-1,0.697
8,PC-3 [JPC-3],0.444
9,LOU-NH91,0.777
10,NCI-H647,0.792

# Compound: CCOC(=O)CCNc1cc(N2CCc3ccccc3CC2)nc(-c2ccccn2)n1 [GSK-J4] + CS(=O)(=O)N1CCN(Cc2cc3nc(-c4cccc5[nH]ncc45)nc(N4CCOCC4)c3s2)CC1 [Pictilisib] (partner 1 µM)
# Test: as above
# Details: first compound 0.5 µM
# Procedure, shortened: as §1
row,Cell Line,relative viability
1,PC-14,0.642
2,NCI-H1666,0.325
3,EKVX,0.343
4,NCI-H1755,0.453
5,NCI-H2023,0.303
6,HCC-78,0.202
7,SK-LU-1,0.565
8,PC-3 [JPC-3],0.644
9,LOU-NH91,0.596
10,NCI-H647,0.576
11,ChaGo-K-1,0.864
12,LCLC-103H,0.704
13,NCI-H441,0.427

# Same assay, conditions: first compound 1.581 µM
row,Cell Line,relative viability
1,PC-14,0.672
2,EKVX,0.536
3,NCI-H1755,0.38
4,NCI-H2023,0.182
5,HCC-78,0.185
6,SK-LU-1,0.543
7,PC-3 [JPC-3],0.647
8,LOU-NH91,0.508
9,NCI-H647,0.479
10,LCLC-103H,0.6
11,NCI-H441,0.458

# Same assay, conditions: first compound 5 µM
row,Cell Line,relative viability
1,PC-14,0.678
2,NCI-H1666,0.419
3,EKVX,0.619
4,NCI-H1755,0.378
5,NCI-H2023,0.332
6,HCC-78,0.889
7,SK-LU-1,0.483
8,PC-3 [JPC-3],0.757
9,LOU-NH91,0.542
10,NCI-H647,0.272
11,ChaGo-K-1,0.655
12,LCLC-103H,0.542
13,NCI-H441,0.571

# Same assay, conditions: first compound 15.81 µM
row,Cell Line,relative viability
1,PC-14,0.714
2,NCI-H1666,0.603
3,EKVX,0.424
4,NCI-H1755,0.387
5,NCI-H2023,0.264
6,SK-LU-1,0.512
7,PC-3 [JPC-3],0.742
8,LOU-NH91,0.532
9,NCI-H647,0.426
10,ChaGo-K-1,0.82
11,LCLC-103H,0.691
12,NCI-H441,0.506

# Same assay, conditions: first compound 50 µM
row,Cell Line,relative viability
1,PC-14,0.615
2,NCI-H1666,0.364
3,EKVX,0.397
4,NCI-H1755,0.331
5,NCI-H2023,0.132
6,HCC-78,0.225
7,SK-LU-1,0.408
8,PC-3 [JPC-3],0.671
9,LOU-NH91,0.518
10,NCI-H647,0.353
11,ChaGo-K-1,0.596
12,LCLC-103H,0.627
13,NCI-H441,0.403

# Compound: CCOC(=O)CCNc1cc(N2CCc3ccccc3CC2)nc(-c2ccccn2)n1 [GSK-J4]
# Test: relative viability (nuclei count vs DMSO), 5 days (fraction); higher = more cells survive
# Details: 0.5 µM
# Procedure, shortened: (§2)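 Viability here means nuclei in treated wells divided by nuclei in vehicle wells, reported as the median across plates. Only plates with control CV below 25% and at least one doubling passed. Lung cancer cell lines in 1536-well plates were exposed to five √10-spaced library-drug doses for 5 days and counted from 4× Hoechst images in MetaXpress.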
row,Cell Line,relative viability
1,NCI-H522,1.06
2,NCI-H1623,1.05
3,PC-14,1.02
4,NCI-H1666,0.977
5,EKVX,0.998
6,NCI-H1755,0.969
7,NCI-H2023,0.942
8,HCC-78,1.06
9,SK-LU-1,0.947
10,PC-3 [JPC-3],1.01
11,LOU-NH91,1.12
12,NCI-H647,0.966
13,ChaGo-K-1,0.986
14,NCI-H2342,0.919
15,LCLC-103H,1.07
16,SW 900,0.803
17,NCI-H1648,0.992
18,NCI-H441,0.967

# Same assay, conditions: 1.581 µM
row,Cell Line,relative viability
1,NCI-H522,0.746
2,NCI-H1623,0.739
3,PC-14,0.916
4,NCI-H1666,0.79
5,EKVX,0.71
6,NCI-H1755,0.847
7,NCI-H2023,0.853
8,HCC-78,0.946
9,SK-LU-1,0.865
10,PC-3 [JPC-3],1.03
11,LOU-NH91,1.03
12,NCI-H647,0.832
13,NCI-H2342,1.06
14,LCLC-103H,0.883
15,SW 900,0.794
16,NCI-H441,0.85

# Same assay, conditions: 5 µM
row,Cell Line,relative viability
1,NCI-H522,0.789
2,NCI-H1623,1.31
3,PC-14,0.769
4,NCI-H1666,1.19
5,EKVX,1.03
6,NCI-H1755,0.728
7,NCI-H2023,1.07
8,HCC-78,1.14
9,SK-LU-1,0.826
10,PC-3 [JPC-3],0.953
11,LOU-NH91,0.724
12,NCI-H647,0.742
13,ChaGo-K-1,0.993
14,NCI-H2342,0.925
15,LCLC-103H,0.908
16,SW 900,0.842
17,NCI-H1648,1.47
18,NCI-H441,0.827

# Same assay, conditions: 15.81 µM
row,Cell Line,relative viability
1,NCI-H522,0.75
2,NCI-H1623,0.825
3,PC-14,0.985
4,NCI-H1666,1
5,EKVX,0.85
6,NCI-H1755,0.929
7,NCI-H2023,0.906
8,HCC-78,0.728
9,SK-LU-1,0.838
10,PC-3 [JPC-3],0.95
11,LOU-NH91,0.868
12,NCI-H647,0.886
13,ChaGo-K-1,0.974
14,NCI-H2342,1.03
15,LCLC-103H,0.954
16,SW 900,0.863
17,NCI-H1648,0.496
18,NCI-H441,0.92

# Same assay, conditions: 50 µM
row,Cell Line,relative viability
1,NCI-H522,0.559
2,NCI-H1623,0.959
3,PC-14,1.01
4,NCI-H1666,0.804
5,EKVX,0.898
6,NCI-H1755,0.916
7,NCI-H2023,0.856
8,HCC-78,0.92
9,SK-LU-1,0.704
10,PC-3 [JPC-3],0.955
11,LOU-NH91,0.952
12,NCI-H647,0.936
13,ChaGo-K-1,0.918
14,NCI-H2342,1.07
15,LCLC-103H,0.94
16,SW 900,0.64
17,NCI-H1648,0.807
18,NCI-H441,0.796

# Compound: CN1CCC(CC1)OC2=CC(=C(C=C2)NC3=NC=C4C(=N3)N(C(=O)N4C)C5CCCC5)OC [AZ3146]
# Test: as above
# Details: 0.08 µM
# Procedure, shortened: as §2
row,Cell Line,relative viability
1,NCI-H522,0.917
2,NCI-H1623,1.03
3,PC-14,0.958
4,NCI-H1666,1.09
5,EKVX,0.954
6,NCI-H1755,0.933
7,NCI-H2023,0.935
8,SK-LU-1,0.944
9,PC-3 [JPC-3],0.907
10,LOU-NH91,1.01
11,NCI-H647,0.777
12,ChaGo-K-1,0.942
13,NCI-H2342,0.902
14,LCLC-103H,0.974
15,SW 900,0.77
16,NCI-H441,0.939

# Same assay, conditions: 0.253 µM
row,Cell Line,relative viability
1,NCI-H522,0.943
2,NCI-H1623,0.991
3,PC-14,0.967
4,NCI-H1666,0.953
5,EKVX,0.999
6,NCI-H1755,1.02
7,NCI-H2023,0.912
8,HCC-78,1.01
9,SK-LU-1,1.07
10,PC-3 [JPC-3],0.97
11,LOU-NH91,0.935
12,NCI-H647,0.919
13,ChaGo-K-1,0.885
14,NCI-H2342,0.937
15,LCLC-103H,0.949
16,SW 900,0.669
17,NCI-H1648,0.654
18,NCI-H441,1.18

# Same assay, conditions: 0.8 µM
row,Cell Line,relative viability
1,NCI-H522,0.926
2,NCI-H1623,0.78
3,PC-14,1.02
4,NCI-H1666,1.02
5,EKVX,0.93
6,NCI-H1755,0.955
7,NCI-H2023,0.969
8,HCC-78,0.864
9,SK-LU-1,1
10,PC-3 [JPC-3],1.01
11,LOU-NH91,0.957
12,NCI-H647,0.94
13,ChaGo-K-1,0.964
14,NCI-H2342,1.11
15,LCLC-103H,0.974
16,SW 900,0.751
17,NCI-H1648,0.924
18,NCI-H441,1.01

# Same assay, conditions: 2.53 µM
row,Cell Line,relative viability
1,NCI-H522,0.899
2,NCI-H1623,0.944
3,PC-14,1.04
4,NCI-H1666,1.05
5,EKVX,1
6,NCI-H1755,0.994
7,NCI-H2023,0.871
8,HCC-78,0.989
9,SK-LU-1,1.08
10,PC-3 [JPC-3],1.05
11,LOU-NH91,0.986
12,NCI-H647,1.07
13,ChaGo-K-1,1.04
14,NCI-H2342,0.875
15,LCLC-103H,0.995
16,SW 900,1.01
17,NCI-H1648,0.921
18,NCI-H441,1.05

# Same assay, conditions: 8 µM
row,Cell Line,relative viability
1,NCI-H522,0.938
2,NCI-H1623,0.956
3,PC-14,0.784
4,NCI-H1666,1.05
5,EKVX,1.04
6,NCI-H1755,0.984
7,NCI-H2023,0.296
8,HCC-78,0.956
9,SK-LU-1,0.936
10,PC-3 [JPC-3],0.979
11,LOU-NH91,0.96
12,NCI-H647,0.92
13,ChaGo-K-1,0.741
14,NCI-H2342,0.928
15,LCLC-103H,0.965
16,SW 900,0.686
17,NCI-H1648,1.03
18,NCI-H441,1.03
